Experimental data published in ChEMBL document CHEMBL5550090, “Synthesis and biological evaluation of 1H-pyrrolo[3,2-g]isoquinolines” (Bioorg Med Chem, 2024).

Columns and labels:
[1] = molecular target: Dual specificity protein kinase CLK1 (Mus musculus) (UniProt P22518); assay: Inhibition of recombinant mouse CLK1 expressed in bacteria assessed as enzyme residual activity using GRSRSRSRSRSR as substrate at 10 uM incubated for 30 mins in presence of ATP by ADP-Glo kinase assay
[2] = molecular target: Dual specificity protein kinase CLK1 (Mus musculus) (UniProt P22518); assay: Inhibition of recombinant mouse CLK1 expressed in bacteria assessed as enzyme residual activity using GRSRSRSRSRSR as substrate at 1 uM incubated for 30 mins in presence of ATP by ADP-Glo kinase assay
[3] = molecular target: Dual specificity tyrosine-phosphorylation-regulated kinase 1A (Rattus norvegicus) (UniProt Q63470); assay: Inhibition of recombinant rat DYRK1A kinase domain (1 to 499 residues) expressed in bacteria assessed as enzyme residual activity using KKISGRLSPIMTEQ as substrate at 10 uM incubated for 30 mins in presence of ATP by ADP-Glo kinase assay
[4] = molecular target: Dual specificity tyrosine-phosphorylation-regulated kinase 1A (Rattus norvegicus) (UniProt Q63470); assay: Inhibition of recombinant rat DYRK1A kinase domain (1 to 499 residues) expressed in bacteria assessed as enzyme residual activity using KKISGRLSPIMTEQ as substrate at 1 uM incubated for 30 mins in presence of ATP by ADP-Glo kinase assay
[5] = molecular target: T1, CDK9/cyclin T1 (Homo sapiens) (UniProt O60563+P50750); assay: Inhibition of human recombinant CDK9/cyclin T expressed in baculovirus-infected Sf9 cells assessed as enzyme residual activity using YSPTSPSYSPTSPSYSPTSPSKKKK as substrate at 10 uM incubated for 30 mins in presence of ATP by ADP-Glo kinase assay
[6] = molecular target: T1, CDK9/cyclin T1 (Homo sapiens); assay: Inhibition of human recombinant CDK9/cyclin T expressed in baculovirus-infected Sf9 cells assessed as enzyme residual activity using YSPTSPSYSPTSPSYSPTSPSKKKK as substrate at 1 uM incubated for 30 mins in presence of ATP by ADP-Glo kinase assay
[7] = molecular target: Glycogen synthase kinase-3 beta (Homo sapiens) (UniProt P49841); assay: Inhibition of human recombinant GSK-3 beta expressed in baculovirus-infected Sf9 cells assessed as enzyme residual activity using YRRAAVPPSPSLSRHSSPHQSpEDEEE as substrate at 10 uM incubated for 30 mins in presence of ATP by ADP-Glo kinase assay
Chain of Glycogen synthase kinase-3 beta (Homo sapiens) (P49841 whole entry, looked up, canonical isoform): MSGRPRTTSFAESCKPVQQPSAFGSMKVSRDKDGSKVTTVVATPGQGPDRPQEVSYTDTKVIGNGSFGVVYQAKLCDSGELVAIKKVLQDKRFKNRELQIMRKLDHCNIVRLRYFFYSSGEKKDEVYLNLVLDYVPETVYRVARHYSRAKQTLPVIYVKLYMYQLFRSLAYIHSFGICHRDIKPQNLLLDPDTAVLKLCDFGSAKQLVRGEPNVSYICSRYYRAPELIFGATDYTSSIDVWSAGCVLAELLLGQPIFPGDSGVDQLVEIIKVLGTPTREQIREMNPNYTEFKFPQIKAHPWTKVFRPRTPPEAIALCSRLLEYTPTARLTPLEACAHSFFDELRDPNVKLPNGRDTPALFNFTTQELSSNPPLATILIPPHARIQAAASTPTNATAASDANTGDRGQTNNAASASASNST

[8] = molecular target: Glycogen synthase kinase-3 beta (Homo sapiens) (UniProt P49841); assay: Inhibition of human recombinant GSK-3 beta expressed in baculovirus-infected Sf9 cells assessed as enzyme residual activity using YRRAAVPPSPSLSRHSSPHQSpEDEEE as substrate at 1 uM incubated for 30 mins in presence of ATP by ADP-Glo kinase assay
[9] = molecular target: Casein kinase I isoform epsilon (Homo sapiens) (UniProt P49674); assay: Inhibition of human recombinant CK1 epsilon expressed in baculovirus-infected Sf9 cells assessed as enzyme residual activity using RRKHAAIGSpAYSITA as substrate at 10 uM incubated for 30 mins in presence of ATP by ADP-Glo kinase assay
Chain of Casein kinase I isoform epsilon (Homo sapiens) (P49674 whole entry, looked up, canonical isoform): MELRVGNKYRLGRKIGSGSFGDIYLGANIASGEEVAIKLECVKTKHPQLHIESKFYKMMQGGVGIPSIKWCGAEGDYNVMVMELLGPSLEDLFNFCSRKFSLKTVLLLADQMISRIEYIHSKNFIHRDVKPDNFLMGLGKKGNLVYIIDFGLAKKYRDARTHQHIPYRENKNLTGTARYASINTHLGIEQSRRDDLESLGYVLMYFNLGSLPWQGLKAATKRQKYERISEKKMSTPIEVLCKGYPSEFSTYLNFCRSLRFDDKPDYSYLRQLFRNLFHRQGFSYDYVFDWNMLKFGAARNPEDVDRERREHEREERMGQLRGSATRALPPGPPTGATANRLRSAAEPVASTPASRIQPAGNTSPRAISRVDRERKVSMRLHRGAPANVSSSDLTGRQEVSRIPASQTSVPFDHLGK

[10] = molecular target: Casein kinase I isoform epsilon (Homo sapiens) (UniProt P49674); assay: Inhibition of human recombinant CK1 epsilon expressed in baculovirus-infected Sf9 cells assessed as enzyme residual activity using RRKHAAIGSpAYSITA as substrate at 1 uM incubated for 30 mins in presence of ATP by ADP-Glo kinase assay
[11] = molecular target: T2, Cyclin-dependent kinase 5/CDK5 activator 1 (Homo sapiens) (UniProt Q00535+Q15078); assay: Inhibition of human recombinant CDK5/p25 expressed in bacteria assessed as enzyme residual activity using histone H1 as substrate at 10 uM incubated for 30 mins in presence of ATP by ADP-Glo kinase assay
T2 sequence (Q00535 whole entry): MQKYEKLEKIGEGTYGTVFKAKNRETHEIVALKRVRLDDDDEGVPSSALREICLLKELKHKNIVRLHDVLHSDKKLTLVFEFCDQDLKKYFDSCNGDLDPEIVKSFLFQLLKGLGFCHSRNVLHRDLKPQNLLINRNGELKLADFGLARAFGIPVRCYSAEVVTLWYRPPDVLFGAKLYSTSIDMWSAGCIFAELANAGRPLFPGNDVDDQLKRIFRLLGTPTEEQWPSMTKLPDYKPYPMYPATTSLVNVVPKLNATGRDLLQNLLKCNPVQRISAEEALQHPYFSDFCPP
T2 sequence (Q15078 99-307 partner limits assumed): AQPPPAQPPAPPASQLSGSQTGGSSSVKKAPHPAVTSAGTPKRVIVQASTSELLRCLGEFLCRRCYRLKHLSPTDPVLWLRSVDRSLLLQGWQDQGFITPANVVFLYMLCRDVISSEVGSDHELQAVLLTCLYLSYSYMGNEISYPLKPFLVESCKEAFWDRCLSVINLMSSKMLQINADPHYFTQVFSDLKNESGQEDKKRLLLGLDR

[12] = molecular target: T2, Cyclin-dependent kinase 5/CDK5 activator 1 (Homo sapiens); assay: Inhibition of human recombinant CDK5/p25 expressed in bacteria assessed as enzyme residual activity using histone H1 as substrate at 1 uM incubated for 30 mins in presence of ATP by ADP-Glo kinase assay
[13] = molecular target: T3, Serine/threonine-protein kinase pim-1 (Homo sapiens, UniProt P11309); assay: Inhibition of human recombinant PIM-1 expressed in bacteria assessed as enzyme residual activity using histone H1 as substrate at 10 uM incubated for 30 mins in presence of ATP by ADP-Glo kinase assay
T3 sequence (P11309 whole entry, looked up): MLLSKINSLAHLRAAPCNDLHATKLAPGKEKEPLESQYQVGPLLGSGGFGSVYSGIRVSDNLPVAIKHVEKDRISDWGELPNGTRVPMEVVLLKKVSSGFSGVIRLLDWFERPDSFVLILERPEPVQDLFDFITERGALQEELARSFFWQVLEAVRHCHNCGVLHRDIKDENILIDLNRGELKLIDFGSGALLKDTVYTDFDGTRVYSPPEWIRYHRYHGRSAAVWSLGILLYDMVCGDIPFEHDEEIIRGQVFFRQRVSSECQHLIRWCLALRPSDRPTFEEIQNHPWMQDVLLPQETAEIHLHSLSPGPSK

[14] = molecular target: T3, Serine/threonine-protein kinase pim-1; assay: Inhibition of human recombinant PIM-1 expressed in bacteria assessed as enzyme residual activity using histone H1 as substrate at 1 uM incubated for 30 mins in presence of ATP by ADP-Glo kinase assay
[15] = molecular target: T4, Serine/threonine-protein kinase haspin (Homo sapiens, UniProt Q8TF76); assay: Inhibition of recombinant human Haspin kinase domain (470 to 798 residues) expressed in bacteria using histone H3 (1 to 21) peptide as substrate incubated for 30 mins in presence of ATP by ADP-Glo kinase assay
T4 sequence (Q8TF76 whole entry): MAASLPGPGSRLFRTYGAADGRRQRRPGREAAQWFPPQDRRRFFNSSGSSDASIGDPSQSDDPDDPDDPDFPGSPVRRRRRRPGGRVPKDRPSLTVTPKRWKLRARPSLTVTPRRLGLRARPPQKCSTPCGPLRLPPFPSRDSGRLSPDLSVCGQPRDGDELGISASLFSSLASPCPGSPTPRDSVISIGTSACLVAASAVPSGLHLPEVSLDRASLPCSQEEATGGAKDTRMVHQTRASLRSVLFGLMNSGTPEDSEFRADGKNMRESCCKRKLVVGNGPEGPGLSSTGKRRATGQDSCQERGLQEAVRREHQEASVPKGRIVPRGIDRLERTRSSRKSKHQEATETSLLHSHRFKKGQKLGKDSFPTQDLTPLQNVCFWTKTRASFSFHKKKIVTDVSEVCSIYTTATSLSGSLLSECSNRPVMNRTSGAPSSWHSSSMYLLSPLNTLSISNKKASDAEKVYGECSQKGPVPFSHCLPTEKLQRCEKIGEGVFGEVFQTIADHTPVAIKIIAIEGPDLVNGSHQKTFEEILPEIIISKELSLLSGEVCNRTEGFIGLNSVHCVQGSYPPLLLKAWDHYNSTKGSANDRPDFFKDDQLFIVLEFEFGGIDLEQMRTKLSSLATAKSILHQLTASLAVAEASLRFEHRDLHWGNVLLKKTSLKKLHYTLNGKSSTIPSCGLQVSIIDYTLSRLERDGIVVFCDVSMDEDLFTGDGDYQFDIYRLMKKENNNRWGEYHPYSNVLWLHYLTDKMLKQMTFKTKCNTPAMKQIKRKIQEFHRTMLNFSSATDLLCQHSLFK

Chain of Dual specificity protein kinase CLK1 (Mus musculus) (P22518 whole entry, looked up, the tested form may be a part): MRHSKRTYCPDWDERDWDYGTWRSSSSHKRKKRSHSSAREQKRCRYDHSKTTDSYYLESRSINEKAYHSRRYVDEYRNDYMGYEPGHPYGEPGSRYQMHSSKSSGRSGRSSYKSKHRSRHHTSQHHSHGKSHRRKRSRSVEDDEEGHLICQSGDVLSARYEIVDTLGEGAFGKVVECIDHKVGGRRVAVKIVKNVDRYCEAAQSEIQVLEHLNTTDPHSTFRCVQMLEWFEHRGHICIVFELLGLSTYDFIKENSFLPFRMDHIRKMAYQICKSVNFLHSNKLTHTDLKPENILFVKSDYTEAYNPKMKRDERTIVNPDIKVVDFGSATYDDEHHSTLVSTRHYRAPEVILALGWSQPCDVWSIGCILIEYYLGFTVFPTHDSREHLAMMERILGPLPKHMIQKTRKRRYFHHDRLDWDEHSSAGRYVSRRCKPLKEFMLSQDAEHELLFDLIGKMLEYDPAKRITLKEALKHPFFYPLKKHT

| SMILES | Activity [1] | Activity [2] | Activity [3] | Activity [4] | Activity [5] | Activity [6] | Activity [7] | Activity [8] | Activity [9] | Activity [10] | Activity [11] | Activity [12] | Activity [13] | Activity [14] | IC50 [15] |
| --- | --- | --- | --- | --- | --- | --- | --- | --- | --- | --- | --- | --- | --- | --- | --- |
| Clc1c[nH]c2cc3cnccc3cc12 | 39% | 78% | 21% | 61% | 25% | 62% | 82% | 92% | 82% | 100% | 68% | 100% | 16% | 63% |  |
| Cn1cc(I)c2cc3ccncc3cc21 | 22% | 61% | 14% | 46% | 26% | 57% | 60% | 81% | 72% | 100% | 22% | 95% | 26% | 48% | 243 nM |
| COc1ncc2cc3cnccc3c([N+](=O)[O-])c2n1 | 8% |  | 20% |  | 43% |  | 29% |  | 53% |  | 80% |  | 55% |  |  |
| Nc1cc2cc3ccncc3cc2[nH]1 | 20% | 73% | 39% | 100% | 27% | 74% | 64% | 69% | 52% | 79% | 99% | 89% | 88% | 100% |  |
| c1cc2cc3c(-c4cncnc4)c[nH]c3cc2cn1 | 14% | 54% | 20% | 51% | 43% | 79% | 59% | 68% | 43% | 81% | 72% | 100% | 33% | 63% | 249 nM |
| c1cc2cc3cc[nH]c3cc2cn1 | 67% | 87% | 37% | 99% | 34% | 76% | 100% | 100% | 90% | 97% | 98% | 100% | 45% | 90% |  |
| CNCc1c[nH]c2cc3cnccc3cc12 | 74% | 95% | 92% |  | 37% | 58% | 83% | 87% | 98% | 100% | 88% | 93% | 90% | 89% |  |
| c1ccc(-c2c[nH]c3cc4cnccc4cc23)cc1 | 44% | 74% | 19% | 53% | 63% | 83% | 77% | 66% | 88% | 100% | 73% | 97% | 18% | 53% | 482 nM |
| CCNCc1c[nH]c2cc3cnccc3cc12 | 80% | 94% | 63% | 80% | 37% | 74% | 80% | 76% | 100% | 100% | 89% |  | 74% | 76% |  |
| CCN(CC)Cc1c[nH]c2cc3cnccc3cc12 | 84% | 89% | 76% | 89% | 51% | 86% | 77% | 79% | 100% | 98% | 100% |  | 47% | 65% |  |
| CN(C)Cc1c[nH]c2cc3cnccc3cc12 | 62% | 91% | 67% | 74% | 18% | 57% | 66% | 78% | 99% | 100% | 97% | 100% | 67% | 66% |  |
| Cn1ccc2cc3ccncc3cc21 | 58% | 92% | 29% | 67% | 60% | 89% | 83% | 100% | 85% | 92% | 38% | 53% | 35% | 67% | ~1000 nM |
| OCc1c[nH]c2cc3cnccc3cc12 | 55% | 96% | 62% | 77% | 55% | 81% | 81% | 84% | 98% | 100% | 94% |  | 100% | 100% | 819 nM |
| NCc1c[nH]c2cc3cnccc3cc12 | 86% | 99% | 62% | 77% | 58% | 93% | 80% | 94% | 96% | 99% | 94% | 100% | 84% | 97% |  |
